Reference: patent US20060135624A1, “Natural compound useful for treating diabetes, its preparation and use” (JINGYU LIANG ET AL, priority 2002, published 2006)

What was measured:
[1] = tested on: blood-sugar level of normal mice; experiment: Effect of Sequoyitol on blood-sugar level of normal mice; type: in vivo, Kunming mice; settings: Glibenclamide 50 mg/kg oral 7 days
Protocol: 1. Experimental Method^[3] • 60 Mice were randomly divided into 5 groups, […] according to 0.1 ml/10 g of body weight, respectively, and the normal group was administrated with the same volum of the same volum of distilled water. These administrations were conducted for continuous 7 days. The blood-sugar levels were detected by glucose oxidase method.

[2] = tested on: mouse hyperglycemia induced by adrenalin; experiment: Effect of Sequoyitol on mouse hyperglycemia induced by adrenalin; type: in vivo, Kunming mice; settings: Glibenclamide 10 mg/kg oral 7 days
Protocol: 1. Experimental Methods^[3] • 72 Mice were randomly divided into 6 groups, wherein 4 groups were orally administrated with 25, 50 and 100 mg/kg of Sequoyitol and 10 mg/kg of Glibenclamide according to 0,1 ml/10 g of body weight, respectively, and the normal group and modeling group were administrated with the same volum of distilled water. These administrations were conducted for continuous 7 days. The normal group was administrated with the same volum of physiological saline by injection, while other groups were administrated with 0.2 mg/kg of adrenalin by intra-abdominal injection. The blood-sugar levels were detected by glucose oxidase method after 30 minutes of administration. The livers of the mice were collected, and hepatic glycogen levels were detected by anthrone method.

[3] = tested on: mouse hyperglycemia induced by alloxan; experiment: Time-effect relation of Sequoyitol to mouse hyperglycemia induced by alloxan; type: in vivo, Kunming mice; settings: phenformine 75 mg/kg p.o. 7 days
Protocol: 1. Experimental Methods^[1,2] • Alloxan was administrated to each of 30 mice by caudal vein injection with a dose of 65 mg/kg, and the mice were modeled according to the method of documents, divided into 3 groups according to blood-sugar values, […] according to […] of body weight, and the modeling group was administrated with the same volum of distilled water, separately. These administrations were conducted for continuous 7 days, and the mice were fasted for 2 hours before the last administration, and their blood-sugar levels were detected by glucose oxidase method at 1 2, 3 and 5 hours after the last administration.

[4] = tested on: mouse hyperglycemia induced by alloxan; experiment: Effects of Sequoyitol on mouse hyperglycemia induced by alloxan; type: in vivo, Kunming mice; settings: phenformine 75 mg/kg p.o. 7 days
Protocol: 1. Experimental Methods^[1,2] • Among 60 mice, 10 mice were randomly selected as normal group, and the residual mice were administrated with 65 mg/kg alloxan by caudal vein injection, modeled according to the method of documents, and divided into 5 groups according to blood-sugar values, wherein 4 groups were perorally administrated with 25, 50 and 100 mg/kg of Sequoyitol and 75 mg/kg of phenformine according to 0.1 ml/10 g of body weight, respectively, and the normal group and modeling group were administrated with the same volum of distilled water, separately. These administrations were conducted for continuous 7 days. The blood-sugar levels were detected by glucose oxidase method. The pancreatic glands of the mice were soaked in 10% formalin, embedded with paraffin, sliced, and dyed with HE dye.

[5] = tested on: mouse hyperglycemia induced by glucose; experiment: Effect of Sequoyitol on mouse hyperglycemia induced by glucose; type: in vivo, Kunming mice; settings: phenformine 75 mg/kg oral 7 days; 30, 60, 90, 120 minutes after i.p. glucose
Protocol: 1. Experimental Method^[4] • 72 Mice were randomly divided into 6 groups, […] according to 0.1 ml/10 g of body weight, respectively, and the normal group and modeling group were administrated with the same volum of distilled water. These administrations were conducted for continuous 7 days. The normal group was administrated with the same volum of physiological saline by injection, while other groups were administrated with […] of glucose by intra-abdominal injection. After 30, 60, 90 and 120 minutes of administration, bloods were collected from venous plexus behind fossa orbitalis, the serums were separated, and the blood-sugar levels were separately detected by glucose oxidase method.

[6] = tested on: rat hyperglycemia induced by alloxan; experiment: Effect of Sequoyitol on rat hyperglycemia induced by alloxan; type: in vivo, SD rats
Protocol: 1. Experimental Methods^[5,6] • 5 Rats were randomly selected as normal group, the other 55 rats were fasted for 14-16 hours, administrated with 30 mg/kg of Pentobarbital by intra-abdominal injection. After paralyzed, the rats were administrated with 48 mg/kg of alloxan by vena femoralis injection, modeled according to methods of documents, and divided into 5 groups according to blood-sugar level, wherein each group had 11 rats, and 4 groups were orally administrated with 25, 50 and 100 mg/kg of Sequoyitol and 75 mg/kg of phenformine according to 1 ml/100 g of body weight, respectively, and the normal group and modeling group were administrated with the same volum of distilled water. These administrations were conducted for continuous 18 days. The fasting blood-sugar levels of the rats were separately measured at 6th and 12th day after the administration. At the 18th day, blood was collected from arteria femoralis, and the blood sugar level, insulin level, cholesterol content, triglyceride content, malonaldehyde content, and hepatocuprein activity of serum were measured; liver tissue was homogenated, and the malonaldehyde content, and hepatocuprein activity of liver tissue were measured; and pancreatic gland was soaked in 10% formalin, embedded with paraffin, sliced, and dyed with HE.

[7] = tested on: mouse hyperglycemia induced by Streptozocin; experiment: Effect of Sequoyitol on mouse hyperglycemia induced by Streptozocin; type: in vivo, Kunming mice
Protocol: 1. Experimental Methods^[7,8] • Among 66 mice, 10 mice were randomly selected as normal group, and the residual mice were administrated with 160 mg/kg Streptozocin by vena caudalis injection, modeled according to methods of documents, and divided into 5 groups according to blood-sugar level, wherein 4 groups were perorally administrated with 25, 50 and 100 mg/kg of Sequoyitol and 75 mg/kg of phenformine according to 0.1 ml/10 g of body weight, respectively, and the normal group and modeling group were administrated with the same volum of distilled water. These administrations were conducted for continuous 18 days. The blood-sugar levels of the mice were separately measured at 6th and 12th day after the administration. At the 18th day, blood was collected by excising eyeballs, serum was separated, and the blood sugar level, insulin level, cholesterol content, triglyceride content, malonaldehyde content, and hepatocuprein activity of serum were measured; liver tissue was homogenated, and the malonaldehyde content and hepatocuprein activity of liver tissue were measured; and pancreatic gland was soaked in 10% formalin, embedded with paraffin, sliced, and dyed with HE.

[8] = phenformine 75 mg/kg oral 18 days
[9] = phenformine 75 mg/kg p.o. 18 days

## COc1ccc(Cl)cc1C(=O)NCCc1ccc(S(=O)(=O)NC(=O)NC2CCCCC2)cc1 [Glibenclamide, reference compound]
[1]
  blood-sugar level decreased compared to the normal group: 19.3 mg/dL
[2]; 30 minutes after adrenalin 0.2 mg/kg i.p.
  blood-sugar level decreased compared to the control group: 40.1 mg/dL
[2]; adrenalin model
  hepatic glycogen level increased compared to the control group: 1.28 mg/g of liver tissue

## [H]/N=C(/N)N/C(=N/[H])NCCc1ccccc1 [phenformine, reference compound]
[3]; 1 hour after last administration
  blood-sugar level decreased compared to the control group: 163.1 mg/dL
[3]; 2 hours after last administration
  blood-sugar level decreased compared to the control group: 159.3 mg/dL
[3]; 3 hours after last administration
  blood-sugar level decreased compared to the control group: 104.2 mg/dL
[3]; 5 hours after last administration
  blood-sugar level decreased compared to the control group: 56.6 mg/dL
[4]
  blood-sugar level decreased compared to the control group: 152.8 mg/dL
  number of pancreatic islands and number of islet cells (histopathologic examination) compared to the model group: increased slightly
[5]
  glucose-induced hyperglycemia compared to the control group: highly significantly alleviated
[6]; phenformine 75 mg/kg oral
  body weight of rats compared to the control group: did not significantly change
[6]; [8]
  activity of hepatocuprein in liver tissue compared to the control group: did not significantly change
  activity of hepatocuprein in serum compared to the control group: did not significantly change
  content of cholesterol in serum compared to the control group: did not significantly change
  content of malonaldehyde in liver tissue compared to the control group: decreased slightly
  content of malonaldehyde in serum compared to the control group: decreased slightly
  content of triglyceride in serum compared to the control group: did not significantly change
  serum insulin level compared to the control group: increased
[6]; phenformine 75 mg/kg oral, since the 6th day
  alloxan-induced hyperglycemia compared to the control group: highly significantly alleviated
[7]; phenformine 75 mg/kg p.o.
  body weight of mice compared to the control group: did not significantly change
[7]; [9]
  activity of hepatocuprein in serum compared to the control group: did not significantly change
  content of cholesterol in serum compared to the control group: did not significantly change
  content of malonaldehyde in liver tissue compared to the control group: did not significantly change
  content of triglyceride in serum compared to the control group: did not significantly change
  hyalinization of interstitial small vessels (histopathologic examination): not alleviated
  number of pancreatic islands and number of cells in pancreatic islands (histopathologic examination): slightly increased
  serum insulin level compared to the control group: increased
[7]; phenformine 75 mg/kg p.o., 12th day
  Streptozocin-induced hyperglycemia compared to the control group: significantly alleviated
